The source of these data is ChEMBL document CHEMBL2146430, “Rational evolution of a novel type of potent and selective proviral integration site in Moloney murine leukemia virus kinase 1 (PIM1) inhibitor from a screening-hit compound” (J Med Chem, 2012).

The source made the active and inactive calls. The rule behind the calls is not given here.

Series [1] deals with T1, Serine/threonine-protein kinase pim-1 (Homo sapiens, UniProt P11309). The series is described as follows: Inhibition of PIM1 using 5-FAM-RSRHSSYPAGT-CONH2 as substrate after 2 hrs by electrophoretic mobility shift assay.
Target sequence in this assay (P11309 whole entry): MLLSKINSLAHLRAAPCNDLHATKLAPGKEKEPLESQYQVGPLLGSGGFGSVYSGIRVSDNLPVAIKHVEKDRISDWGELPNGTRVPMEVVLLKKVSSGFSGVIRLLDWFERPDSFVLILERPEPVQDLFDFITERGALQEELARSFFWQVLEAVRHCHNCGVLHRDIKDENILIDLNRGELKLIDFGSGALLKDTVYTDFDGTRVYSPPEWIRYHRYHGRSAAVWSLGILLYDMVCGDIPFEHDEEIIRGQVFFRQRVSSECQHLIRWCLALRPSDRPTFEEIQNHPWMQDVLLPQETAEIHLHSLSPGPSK
In series [2] the test system is MV4-11. The series is described as follows: Growth inhibition of human MV4-11 cells after 48 hrs. The format is functional. To be noted: MV4-11, 48 h.
The target in series [3] is T2, Serine/threonine-protein kinase pim-2 (Homo sapiens, UniProt Q9P1W9). The conditions noted are these: 250 nM.
Target sequence in this assay (Q9P1W9 whole entry, looked up): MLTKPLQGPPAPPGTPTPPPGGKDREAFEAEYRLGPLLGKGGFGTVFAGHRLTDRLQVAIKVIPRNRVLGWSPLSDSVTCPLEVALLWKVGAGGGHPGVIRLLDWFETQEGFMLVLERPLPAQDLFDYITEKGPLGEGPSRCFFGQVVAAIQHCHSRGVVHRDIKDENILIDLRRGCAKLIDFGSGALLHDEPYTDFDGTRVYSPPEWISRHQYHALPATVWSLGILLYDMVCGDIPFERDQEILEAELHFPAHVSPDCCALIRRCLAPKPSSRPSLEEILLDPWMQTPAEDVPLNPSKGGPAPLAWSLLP
Description: Inhibition of PIM2 at 250 nM by electrophoretic mobility shift assay
Series [4] can be described thus: Metabolic stability in human liver microsomes assessed as compound remaining at 1 uM after 1 hr. The conditions noted are these: read-out: Stability. The format is ADME, Microsome.
Series [5] is described as follows: Metabolic stability in mouse liver microsomes assessed as compound remaining at 1 uM after 1 hr. The format is ADME, Microsome. To be noted: read-out: Stability.
The target in series [6] is T3, Serine/threonine-protein kinase pim-3 (Homo sapiens, UniProt Q86V86). To be noted: 250 nM.
Description: Inhibition of PIM3 at 250 nM by electrophoretic mobility shift assay
Series [7] concerns the target T3, Serine/threonine-protein kinase pim-3. The series is described as follows: Inhibition of PIM3 at 200 nM by electrophoretic mobility shift assay.
Series [8] deals with T1, Serine/threonine-protein kinase pim-1. In words: Inhibition of PIM1 at 200 nM by electrophoretic mobility shift assay.
Target sequence in this assay (P11309 whole entry, looked up): as the sequence (P11309 whole entry) above
The target in series [9] is Receptor-type tyrosine-protein kinase FLT3 (Homo sapiens) (UniProt P36888). The series is described as follows: Inhibition of FLT3 at 200 nM by electrophoretic mobility shift assay.
Series [10] concerns the target Platelet-derived growth factor receptor alpha (Homo sapiens) (UniProt P16234). In words: Inhibition of PDGFRalpha at 200 nM by electrophoretic mobility shift assay.
For series [11], the target named is T2, Serine/threonine-protein kinase pim-2. The series is described as follows: Inhibition of PIM2 at 200 nM by electrophoretic mobility shift assay.
Target sequence in this assay (Q9P1W9 whole entry, looked up): as the sequence (Q9P1W9 whole entry, looked up) above
For series [12], the target named is Death-associated protein kinase 1 (Homo sapiens) (UniProt P53355). In words: Inhibition of DAPK1 at 200 nM by electrophoretic mobility shift assay.
In series [13] the target is Glycogen synthase kinase-3 beta (Homo sapiens) (UniProt P49841). The series is described as follows: Inhibition of GSK3beta at 200 nM by electrophoretic mobility shift assay.
Series [14] addresses Rho-associated protein kinase 1 (Homo sapiens) (UniProt Q13464). In words: Inhibition of ROCK1 at 200 nM by electrophoretic mobility shift assay.
Series [15] concerns the target Protein kinase C alpha type (Homo sapiens) (UniProt P17252). In words: Inhibition of PKCalpha at 200 nM by electrophoretic mobility shift assay.
In series [16] the target is Serine/threonine-protein kinase D2 (Homo sapiens) (UniProt Q9BZL6). The series is described as follows: Inhibition of PKD2 at 200 nM by electrophoretic mobility shift assay.
The target in series [17] is T3, Serine/threonine-protein kinase pim-3. In words: Inhibition of PIM3 at 600 nM by electrophoretic mobility shift assay.
For series [18], the target named is Receptor-type tyrosine-protein kinase FLT3 (Homo sapiens) (UniProt P36888). In words: Inhibition of FLT3 at 600 nM by electrophoretic mobility shift assay.
Series [19] addresses T1, Serine/threonine-protein kinase pim-1. In words: Inhibition of PIM1 at 600 nM by electrophoretic mobility shift assay.
Target sequence in this assay (P11309 whole entry, looked up): as the sequence (P11309 whole entry) above
The target of series [20] is Tyrosine-protein kinase SYK (Homo sapiens) (UniProt P43405). In words: Inhibition of SYK at 600 nM by electrophoretic mobility shift assay.
The target in series [21] is Platelet-derived growth factor receptor alpha (Homo sapiens) (UniProt P16234). In words: Inhibition of PDGFRalpha at 600 nM by electrophoretic mobility shift assay.
Series [22] deals with T2, Serine/threonine-protein kinase pim-2. In words: Inhibition of PIM2 at 600 nM by electrophoretic mobility shift assay.
Target sequence in this assay (Q9P1W9 whole entry, looked up): as the sequence (Q9P1W9 whole entry, looked up) above
A further series deals with CYP1A2 (Homo sapiens, UniProt P05177). In words: Inhibition of CYP1A2 at 10 uM. The series is classed as ADME.
For series [23], the target named is T2, Serine/threonine-protein kinase pim-2. In words: Inhibition of PIM2 at 300 nM by electrophoretic mobility shift assay.
Target sequence in this assay (Q9P1W9 whole entry, looked up): as above
The target of series [24] is T3, Serine/threonine-protein kinase pim-3. The series is described as follows: Inhibition of PIM3 at 300 nM by electrophoretic mobility shift assay.
For series [25], the target named is T4, hERG (KCNH2) (Homo sapiens, UniProt Q12809). In words: Inhibition of human ERG at 1 uM by patch clamp assay.
The nature of series [26]: Metabolic stability in mouse hepatocytes assessed as compound remaining at 1 uM after 2 hrs. The series is classed as ADME, cell-based, Hepatocyte. The conditions noted are these: read-out: Stability.
For the next series, the target named is CYP2C9 (Homo sapiens, UniProt P11712). The series is described as follows: Inhibition of CYP2C9 at 10 uM. The series is classed as ADME.
A further series deals with CYP2D6 (Homo sapiens, UniProt P10635). The series is described as follows: Inhibition of CYP2D6 at 10 uM. The series is classed as ADME.
Series [27] addresses Receptor-type tyrosine-protein kinase FLT3 (Homo sapiens) (UniProt P36888). In words: Inhibition of FLT3 at 300 nM by electrophoretic mobility shift assay.
Series [28] deals with T1, Serine/threonine-protein kinase pim-1. The conditions noted are these: MV4-11, 0.01 to 10 uM.
Target sequence in this assay (P11309 whole entry, looked up): as the sequence (P11309 whole entry) above
Description: Inhibition of PIM1-mediated BAD phosphorylation at ser136 in human MV4-11 cells at 0.01 to 10 uM after 1 hr by Western blotting
For series [29] the target is unchanged. The conditions noted are these: 300 nM.
Target sequence in this assay (P11309 whole entry, looked up): as the sequence (P11309 whole entry) above
Description: Inhibition of PIM1 at 300 nM by electrophoretic mobility shift assay
In series [30] the test system is MV4-11. In words: Cell cycle arrest in human MV4-11 cells assessed as accumulation at G1 phase after 48 hrs by flow cytometry. The format is functional, cell-based.
The target of series [31] is T4, hERG (KCNH2). The series is described as follows: Inhibition of human ERG at 10 uM by patch clamp assay.
Series [32] addresses T3, Serine/threonine-protein kinase pim-3. In words: Inhibition of PIM3 by electrophoretic mobility shift assay.
The target of series [33] is T2, Serine/threonine-protein kinase pim-2. The series is described as follows: Inhibition of PIM2 by electrophoretic mobility shift assay.
The target of series [34] is Receptor-type tyrosine-protein kinase FLT3 (Homo sapiens, UniProt P36888). The series is described as follows: Inhibition of FLT3 by electrophoretic mobility shift assay.
Series [35] concerns the target T1, Serine/threonine-protein kinase pim-1. In words: Inhibition of PIM1 by electrophoretic mobility shift assay.
Target sequence in this assay (P11309 whole entry): as above
Series [36] deals with MV4-11. The series is described as follows: Induction of apoptosis in human MV4-11 cells after 48 hrs by annexin V/propidium iodide staining based flow cytometric analysis. The format is functional, cell-based.
For another series, the target named is CYP3A4 (Homo sapiens, UniProt P08684). The series is described as follows: Inhibition of CYP3A4 at 10 uM. The format is ADME.
A further series concerns WI-38. The series is described as follows: Growth inhibition of human WI38 cells after 48 hrs. To be noted: wi-38, 48 h. The format is cell-based.
A further series deals with CYP2C19 (Homo sapiens, UniProt P33261). In words: Inhibition of CYP2C19 at 10 uM. The series is classed as ADME.
The target in series [37] is Aurora kinase A (Homo sapiens) (UniProt O14965). In words: Inhibition of Aurora A at 22500 nM by electrophoretic mobility shift assay.
Series [38] has as its target Glycogen synthase kinase-3 beta (Homo sapiens) (UniProt P49841). The series is described as follows: Inhibition of GSK3beta at 22500 nM by electrophoretic mobility shift assay.
The target in series [39] is Mitogen-activated protein kinase kinase kinase 9 (Homo sapiens) (UniProt P80192). The series is described as follows: Inhibition of MLK1 at 22500 nM by ELISA.
For series [40], the target named is Tyrosine-protein kinase SYK (Homo sapiens) (UniProt P43405). The series is described as follows: Inhibition of SYK at 22500 nM by electrophoretic mobility shift assay.
Series [41] has as its target T3, Serine/threonine-protein kinase pim-3. The series is described as follows: Inhibition of PIM3 at 22500 nM by electrophoretic mobility shift assay.
For series [42], the target named is Platelet-derived growth factor receptor alpha (Homo sapiens) (UniProt P16234). In words: Inhibition of PDGFRalpha at 22500 nM by electrophoretic mobility shift assay.
For series [43], the target named is Epidermal growth factor receptor (Homo sapiens) (UniProt P00533). The series is described as follows: Inhibition of EGFR at 22500 nM by electrophoretic mobility shift assay.
Series [44] addresses T1, Serine/threonine-protein kinase pim-1. In words: Inhibition of PIM1 at 22500 nM by electrophoretic mobility shift assay.
Target sequence in this assay (P11309 whole entry, looked up): as the sequence (P11309 whole entry) above
The target of series [45] is T2, Serine/threonine-protein kinase pim-2. The series is described as follows: Inhibition of PIM2 at 22500 nM by electrophoretic mobility shift assay.
Target sequence in this assay (Q9P1W9 whole entry, looked up): as the sequence (Q9P1W9 whole entry, looked up) above
Series [46] addresses Receptor-type tyrosine-protein kinase FLT3 (Homo sapiens) (UniProt P36888). The series is described as follows: Inhibition of FLT3 at 22500 nM by electrophoretic mobility shift assay.
The target of series [47] is Serine/threonine-protein kinase 4 (Homo sapiens) (UniProt Q13043). In words: Inhibition of MST1 at 22500 nM by electrophoretic mobility shift assay.
For series [48], the target named is Vascular endothelial growth factor receptor 2 (Homo sapiens) (UniProt P35968). In words: Inhibition of KDR at 22500 nM by electrophoretic mobility shift assay.

Sequence of Receptor-type tyrosine-protein kinase FLT3 (Homo sapiens) (P36888 whole entry): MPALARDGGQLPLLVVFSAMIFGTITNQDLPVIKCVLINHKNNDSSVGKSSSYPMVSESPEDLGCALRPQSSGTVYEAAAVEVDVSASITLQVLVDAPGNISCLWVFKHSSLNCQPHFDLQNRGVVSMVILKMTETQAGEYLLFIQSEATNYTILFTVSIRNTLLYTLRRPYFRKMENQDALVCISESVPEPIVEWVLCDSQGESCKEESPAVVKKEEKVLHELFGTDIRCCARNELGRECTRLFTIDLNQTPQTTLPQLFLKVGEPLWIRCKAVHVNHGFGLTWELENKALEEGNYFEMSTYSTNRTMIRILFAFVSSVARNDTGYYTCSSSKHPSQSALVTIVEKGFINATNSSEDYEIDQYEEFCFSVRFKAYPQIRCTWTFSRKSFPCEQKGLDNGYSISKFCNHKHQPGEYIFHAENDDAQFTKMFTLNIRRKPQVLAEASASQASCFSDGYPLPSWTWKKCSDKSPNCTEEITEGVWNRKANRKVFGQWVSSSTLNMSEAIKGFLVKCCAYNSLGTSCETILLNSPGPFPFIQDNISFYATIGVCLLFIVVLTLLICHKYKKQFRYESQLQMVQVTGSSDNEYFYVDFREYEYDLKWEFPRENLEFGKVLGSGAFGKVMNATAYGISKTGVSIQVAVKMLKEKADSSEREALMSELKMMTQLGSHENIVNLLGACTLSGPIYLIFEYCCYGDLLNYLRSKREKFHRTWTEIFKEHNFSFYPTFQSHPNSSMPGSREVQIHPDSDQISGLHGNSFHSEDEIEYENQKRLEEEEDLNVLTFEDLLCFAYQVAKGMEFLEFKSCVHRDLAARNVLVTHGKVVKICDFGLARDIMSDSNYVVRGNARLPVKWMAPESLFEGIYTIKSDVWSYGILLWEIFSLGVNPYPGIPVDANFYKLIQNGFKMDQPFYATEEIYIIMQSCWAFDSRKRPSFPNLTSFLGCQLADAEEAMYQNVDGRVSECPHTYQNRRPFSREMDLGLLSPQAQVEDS
Sequence of Platelet-derived growth factor receptor alpha (Homo sapiens) (P16234 whole entry): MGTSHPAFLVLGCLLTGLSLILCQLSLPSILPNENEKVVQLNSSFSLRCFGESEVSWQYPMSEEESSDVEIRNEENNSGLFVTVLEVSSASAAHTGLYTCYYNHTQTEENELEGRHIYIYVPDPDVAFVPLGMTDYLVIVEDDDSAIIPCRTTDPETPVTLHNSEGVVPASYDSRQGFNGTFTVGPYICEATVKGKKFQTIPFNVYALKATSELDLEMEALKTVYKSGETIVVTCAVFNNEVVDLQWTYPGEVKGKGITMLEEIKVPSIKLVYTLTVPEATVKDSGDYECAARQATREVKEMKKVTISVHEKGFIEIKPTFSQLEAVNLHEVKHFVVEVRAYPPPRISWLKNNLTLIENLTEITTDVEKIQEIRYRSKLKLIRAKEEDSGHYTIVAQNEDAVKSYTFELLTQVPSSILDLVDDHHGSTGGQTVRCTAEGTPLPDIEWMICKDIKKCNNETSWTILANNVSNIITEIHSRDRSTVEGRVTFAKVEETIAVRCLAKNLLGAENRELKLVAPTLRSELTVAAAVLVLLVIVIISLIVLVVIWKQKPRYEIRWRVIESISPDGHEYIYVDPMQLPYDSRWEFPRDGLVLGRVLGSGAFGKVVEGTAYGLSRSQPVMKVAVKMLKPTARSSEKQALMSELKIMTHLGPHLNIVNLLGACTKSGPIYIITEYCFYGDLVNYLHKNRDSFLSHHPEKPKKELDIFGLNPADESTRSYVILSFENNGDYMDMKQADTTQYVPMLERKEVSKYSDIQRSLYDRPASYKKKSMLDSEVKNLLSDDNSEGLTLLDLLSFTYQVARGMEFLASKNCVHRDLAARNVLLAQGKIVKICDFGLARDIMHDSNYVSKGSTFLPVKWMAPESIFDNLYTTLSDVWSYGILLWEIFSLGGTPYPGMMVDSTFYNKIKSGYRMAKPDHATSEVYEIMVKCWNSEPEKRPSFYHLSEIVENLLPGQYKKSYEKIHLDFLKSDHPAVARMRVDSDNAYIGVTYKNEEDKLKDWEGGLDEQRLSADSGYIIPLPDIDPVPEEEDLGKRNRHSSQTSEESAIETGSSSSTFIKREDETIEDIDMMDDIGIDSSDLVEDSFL
T4 sequence (Q12809 whole entry): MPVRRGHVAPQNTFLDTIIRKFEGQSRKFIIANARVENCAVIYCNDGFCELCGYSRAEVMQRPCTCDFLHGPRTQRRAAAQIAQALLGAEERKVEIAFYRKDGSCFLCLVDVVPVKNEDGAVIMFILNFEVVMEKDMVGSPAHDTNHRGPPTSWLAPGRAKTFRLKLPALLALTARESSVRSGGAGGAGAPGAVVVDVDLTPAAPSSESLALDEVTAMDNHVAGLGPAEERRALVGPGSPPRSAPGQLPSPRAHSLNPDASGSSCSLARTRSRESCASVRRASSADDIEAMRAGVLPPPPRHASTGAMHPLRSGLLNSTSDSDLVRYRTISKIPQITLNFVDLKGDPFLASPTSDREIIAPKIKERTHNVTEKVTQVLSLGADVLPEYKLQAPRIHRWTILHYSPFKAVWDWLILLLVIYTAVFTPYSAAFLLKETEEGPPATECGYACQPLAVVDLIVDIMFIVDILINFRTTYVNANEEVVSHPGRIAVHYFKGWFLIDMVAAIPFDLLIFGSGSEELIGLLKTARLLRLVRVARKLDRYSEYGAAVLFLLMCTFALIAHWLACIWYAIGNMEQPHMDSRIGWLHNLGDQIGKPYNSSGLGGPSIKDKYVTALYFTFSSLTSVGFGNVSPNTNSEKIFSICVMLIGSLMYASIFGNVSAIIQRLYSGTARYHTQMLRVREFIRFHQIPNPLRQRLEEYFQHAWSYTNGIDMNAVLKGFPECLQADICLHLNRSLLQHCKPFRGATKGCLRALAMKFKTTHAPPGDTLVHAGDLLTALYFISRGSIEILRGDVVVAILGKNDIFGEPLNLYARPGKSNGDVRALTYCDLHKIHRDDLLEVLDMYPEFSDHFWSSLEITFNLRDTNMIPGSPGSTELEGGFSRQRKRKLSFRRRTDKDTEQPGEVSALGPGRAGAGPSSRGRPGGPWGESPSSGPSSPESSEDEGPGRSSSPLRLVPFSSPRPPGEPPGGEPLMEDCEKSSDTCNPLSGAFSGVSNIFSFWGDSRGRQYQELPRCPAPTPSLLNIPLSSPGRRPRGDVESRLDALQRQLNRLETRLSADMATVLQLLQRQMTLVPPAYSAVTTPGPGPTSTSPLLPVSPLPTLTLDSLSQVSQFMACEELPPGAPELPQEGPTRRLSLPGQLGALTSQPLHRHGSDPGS

`CCCOc1ccc2c(c1CN1CCNCC1)O/C(=C\c1c[nH]c3ccccc13)C2=O`: in series [1], the IC50 is 12 nM.
As for `COc1ccc2c(c1CN1CCNCC1)O/C(=C\c1c[nH]c3cccnc13)C2=O`, the IC50 in series [1] stood at 447 nM.
`COc1ccc2c(c1CN1CCNCC1)O/C(=C\c1c[nH]c3ccccc13)C2=O`: growth in the series with MV4-11 [2] was halved (GI50) at 95 nM. In addition, the inhibition in series [3] was found to be 30%; in [6], 98%. For the same molecule, the remaining at 1 h, 1 µM in series [4] is 82%; in series [5], 86%.
On to `O=C1/C(=C/c2c[nH]c3ccccc23)Oc2c1ccc(OCc1ccccc1)c2CN1CCNCC1`, for which the half-inhibitory concentration (IC50) in series [1] was 43 nM.
As for `COc1ccc2c(c1CN1CCNCC1)O/C(=C\c1c[nH]c3ncccc13)C2=O`, the inhibition in series [7] was 99%; in [8], greater than 99%; in series [11], 39%. The inhibition entry in series [9], in series [10], in [12], in [13], in series [14] and in series [15] was “Active” throughout. Further, in series [16], the inhibition entry is “Active”. Moreover, the IC50 in series [1] worked out at 2 nM.
Take `COc1ccc2c(c1CN1CCNCC1)O/C(=C\c1c[nH]c3ccncc13)C2=O`: the IC50 in series [1] was found to be 53 nM.
Consider `O=C1/C(=C/c2c[nH]c3ccccc23)Oc2c1ccc(O)c2CN1CCCNCC1`, for which, in series [1], the concentration for half-maximal inhibition (IC50) was 102 nM.
With `O=C1/C(=C/c2c[nH]c3ccccc23)Oc2c1ccc(O)c2CN1CCNCC1`, the inhibition in series [17] is 97%; in series [19], 98%; in series [22] it was 30%. The molecule further displayed a concentration for 50% growth inhibition (GI50) with MV4-11 [2] of 270 nM. In addition, the inhibition result in series [18], in series [20] and in series [21] was “Active” throughout. Moreover, the remaining at 1 h, 1 µM turned out to be 90% in [4] and 71% in [5]. The IC50 in series [1] turned out to be 17 nM.
For the molecule `COc1ccc2c(c1CN1CCNCC1)O/C(=C\c1n[nH]c3ccccc13)C2=O`, the inhibition at 10 µM was 33% against CYP1A2; less than 1% against CYP2C9; 11% against CYP2D6; 60% at hERG (KCNH2) [31]; 10% against CYP3A4; 54% at CYP2C19. Also, the values for the inhibition in series [23], in series [24] and in [29] were 19%, 98% and 99%, respectively. The molecule further yielded an inhibition at 1 µM on hERG (KCNH2) [25] of 13%. Also, growth with MV4-11 [2] was halved (GI50) at 43 nM. For the same molecule, the remaining at 2 h, 1 µM in series [26] was found to be 89%. Also, the inhibition result in series [27] was “Active”. Also, the remaining at 1 h, 1 µM was greater than 99% in [4] and 92% in series [5]. The inhibition entry in [28] was “inactive”. In addition, the Activity entry is “Dose-dependent effect” with MV4-11 [30], “Dose-dependent effect” in the series on MV4-11 [36] and “Non-toxic” in the series on WI-38. Besides, the IC50 in [1] was 3 nM; in series [32], 13 nM; in series [33] it was 1160 nM; in [34], 47 nM; in series [35] it was 6 nM.
As to `CCOc1ccc2c(c1CN1CCNCC1)O/C(=C\c1c[nH]c3ccccc13)C2=O`, the half-inhibitory concentration (IC50) in series [1] is 6 nM.
With `CN1CCN(Cc2c(O)ccc3c2O/C(=C\c2c[nH]c4ccccc24)C3=O)CC1`, in [1], the IC50 turned out to be 388 nM.
On the same count and under the same terms, then `O=C1/C(=C/c2c[nH]c3ccccc23)Oc2c(CN3CCNCC3)cccc21`, with 20 nM.
As to `O=C1/C(=C/c2c[nH]c3ccccc23)Oc2c1ccc(O)c2CN1CCCCCC1`, the inhibition result in [37], in series [38], in series [39], in series [40], in series [42] and in series [43] was “Active” throughout. In addition, the inhibition result in [46], in [47] and in series [48] was “Active” each time. Moreover, the remaining at 1 h, 1 µM in [4] came out at 36%; in series [5], 44%. Also, the values for the inhibition in series [41], in [44] and in [45] were 88%, 77% and 46%, respectively. The IC50 in [1] came to 410 nM.
